From the NIST ThermoML archive (doi:10.1016/j.jct.2018.01.003)
Numbers after ± are expanded uncertainties.

Experiment: activity coefficient (dimensionless); of the first substance listed, at infinite dilution; xn = mol fraction of the nth substance listed
Conditions: 101.33 kPa, Liquid, Chromatography, x1 = 0

activity coefficient (338.15 K) | activity coefficient (348.15 K) | activity coefficient (358.15 K) | activity coefficient (368.15 K) | activity coefficient (328.15 K) | Structure (SMILES)
1.42 ± 0.09 | 1.43 ± 0.09 | 1.46 ± 0.1 | 1.48 ± 0.1 | 1.39 ± 0.09 | C=CCCCC [hex-1-ene] + CCCCCCCCCCCCCC[P+](CCCCCC)(CCCCCC)CCCCCC.N#CC(=C=[N-])C#N
1.15 ± 0.07 | 1.16 ± 0.07 | 1.17 ± 0.07 | 1.18 ± 0.08 | 1.14 ± 0.07 | C1CCCCC1 [cyclohexane] + CCCCCCCCCCCCCC[P+](CCCCCC)(CCCCCC)CCCCCC.N#CC(=C=[N-])C#N
0.982 ± 0.062 | 1.03 ± 0.06 | 1.07 ± 0.07 | 1.11 ± 0.07 | 0.938 ± 0.059 | C#CCCCCC [1-heptyne] + CCCCCCCCCCCCCC[P+](CCCCCC)(CCCCCC)CCCCCC.N#CC(=C=[N-])C#N
0.594 ± 0.042 | 0.608 ± 0.043 | 0.628 ± 0.043 | 0.642 ± 0.044 | 0.578 ± 0.041 | C1COCCO1 [1,4-dioxane] + CCCCCCCCCCCCCC[P+](CCCCCC)(CCCCCC)CCCCCC.N#CC(=C=[N-])C#N
1.11 ± 0.07 | 1.16 ± 0.07 | 1.21 ± 0.08 | 1.25 ± 0.08 | 1.06 ± 0.07 | C#CCCCCCC [1-octyne] + CCCCCCCCCCCCCC[P+](CCCCCC)(CCCCCC)CCCCCC.N#CC(=C=[N-])C#N
0.418 ± 0.035 | 0.423 ± 0.035 | 0.429 ± 0.035 | 0.434 ± 0.035 | 0.412 ± 0.034 | CC(C)CO [2-methyl-1-propanol] + CCCCCCCCCCCCCC[P+](CCCCCC)(CCCCCC)CCCCCC.N#CC(=C=[N-])C#N
0.678 ± 0.046 | 0.699 ± 0.047 | 0.724 ± 0.048 | 0.746 ± 0.049 | 0.653 ± 0.045 | CCOC(C)=O [ethyl acetate] + CCCCCCCCCCCCCC[P+](CCCCCC)(CCCCCC)CCCCCC.N#CC(=C=[N-])C#N
0.797 ± 0.052 | 0.832 ± 0.054 | 0.863 ± 0.055 | 0.893 ± 0.057 | 0.76 ± 0.05 | C#CCCC [1-pentyne] + CCCCCCCCCCCCCC[P+](CCCCCC)(CCCCCC)CCCCCC.N#CC(=C=[N-])C#N
0.429 ± 0.035 | 0.445 ± 0.036 | 0.461 ± 0.036 | 0.478 ± 0.037 | 0.41 ± 0.034 | c1ccsc1 [thiophene] + CCCCCCCCCCCCCC[P+](CCCCCC)(CCCCCC)CCCCCC.N#CC(=C=[N-])C#N
1.6 ± 0.11 | 1.64 ± 0.11 | 1.67 ± 0.11 | 1.7 ± 0.11 | 1.56 ± 0.1 | C=CCCCCC [1-heptene] + CCCCCCCCCCCCCC[P+](CCCCCC)(CCCCCC)CCCCCC.N#CC(=C=[N-])C#N
1.33 ± 0.09 | 1.35 ± 0.09 | 1.36 ± 0.09 | 1.37 ± 0.09 | 1.32 ± 0.09 | C1CCCCCCC1 [cyclooctane] + CCCCCCCCCCCCCC[P+](CCCCCC)(CCCCCC)CCCCCC.N#CC(=C=[N-])C#N
0.922 ± 0.058 | 0.938 ± 0.059 | 0.958 ± 0.06 | 0.973 ± 0.061 | 0.906 ± 0.057 | C1=CCCCC1 [cyclohexene] + CCCCCCCCCCCCCC[P+](CCCCCC)(CCCCCC)CCCCCC.N#CC(=C=[N-])C#N
2.06 ± 0.14 | 2.08 ± 0.14 | 2.1 ± 0.14 | 2.12 ± 0.14 | 2.04 ± 0.14 | CCCCCCC [heptane] + CCCCCCCCCCCCCC[P+](CCCCCC)(CCCCCC)CCCCCC.N#CC(=C=[N-])C#N
0.99 ± 0.062 | 1.02 ± 0.06 | 1.06 ± 0.07 | 1.1 ± 0.07 | 0.946 ± 0.06 | COC(C)(C)C [2-methoxy-2-methylpropane] + CCCCCCCCCCCCCC[P+](CCCCCC)(CCCCCC)CCCCCC.N#CC(=C=[N-])C#N
0.468 ± 0.037 | 0.476 ± 0.037 | 0.486 ± 0.037 | 0.495 ± 0.038 | 0.457 ± 0.036 | CCC(C)O (configuration not stated) [butan-2-ol] + CCCCCCCCCCCCCC[P+](CCCCCC)(CCCCCC)CCCCCC.N#CC(=C=[N-])C#N
0.451 ± 0.036 | 0.47 ± 0.037 | 0.494 ± 0.038 | 0.514 ± 0.038 | – | CCC(=O)CC [pentan-3-one] + CCCCCCCCCCCCCC[P+](CCCCCC)(CCCCCC)CCCCCC.N#CC(=C=[N-])C#N
1.62 ± 0.11 | 1.64 ± 0.11 | 1.67 ± 0.11 | 1.69 ± 0.11 | 1.59 ± 0.11 | CCCCC [pentane] + CCCCCCCCCCCCCC[P+](CCCCCC)(CCCCCC)CCCCCC.N#CC(=C=[N-])C#N
0.471 ± 0.037 | 0.477 ± 0.037 | 0.485 ± 0.037 | 0.49 ± 0.037 | 0.462 ± 0.036 | CCO [ethanol] + CCCCCCCCCCCCCC[P+](CCCCCC)(CCCCCC)CCCCCC.N#CC(=C=[N-])C#N
0.399 ± 0.034 | 0.408 ± 0.034 | 0.417 ± 0.035 | 0.424 ± 0.035 | 0.39 ± 0.034 | CO [methanol] + CCCCCCCCCCCCCC[P+](CCCCCC)(CCCCCC)CCCCCC.N#CC(=C=[N-])C#N
0.875 ± 0.056 | 0.914 ± 0.058 | 0.952 ± 0.06 | 0.987 ± 0.062 | 0.833 ± 0.054 | C#CCCCC [1-hexyne] + CCCCCCCCCCCCCC[P+](CCCCCC)(CCCCCC)CCCCCC.N#CC(=C=[N-])C#N
2.67 ± 0.18 | 2.69 ± 0.18 | 2.7 ± 0.18 | 2.71 ± 0.18 | 2.66 ± 0.18 | CCCCCCCCC [nonane] + CCCCCCCCCCCCCC[P+](CCCCCC)(CCCCCC)CCCCCC.N#CC(=C=[N-])C#N

Structure (SMILES) | activity coefficient (338.15 K) | activity coefficient (348.15 K) | activity coefficient (358.15 K) | activity coefficient (368.15 K) | activity coefficient (328.15 K)
CCC[N+](=O)[O-] [1-nitropropane] + CCCCCCCCCCCCCC[P+](CCCCCC)(CCCCCC)CCCCCC.N#CC(=C=[N-])C#N | 0.557 ± 0.04 | 0.566 ± 0.041 | 0.577 ± 0.041 | 0.585 ± 0.041 | –
Cc1ccccc1C [1,2-dimethylbenzene] + CCCCCCCCCCCCCC[P+](CCCCCC)(CCCCCC)CCCCCC.N#CC(=C=[N-])C#N | 0.677 ± 0.046 | 0.706 ± 0.047 | 0.734 ± 0.049 | 0.76 ± 0.05 | 0.646 ± 0.044
c1ccncc1 [pyridine] + CCCCCCCCCCCCCC[P+](CCCCCC)(CCCCCC)CCCCCC.N#CC(=C=[N-])C#N | 0.401 ± 0.034 | 0.413 ± 0.034 | 0.425 ± 0.035 | 0.438 ± 0.035 | –
CCOCC [diethyl ether] + CCCCCCCCCCCCCC[P+](CCCCCC)(CCCCCC)CCCCCC.N#CC(=C=[N-])C#N | 0.981 ± 0.062 | 1.01 ± 0.06 | 1.05 ± 0.07 | 1.08 ± 0.07 | 0.943 ± 0.059
Cc1ccccc1 [toluene] + CCCCCCCCCCCCCC[P+](CCCCCC)(CCCCCC)CCCCCC.N#CC(=C=[N-])C#N | 0.585 ± 0.041 | 0.611 ± 0.043 | 0.635 ± 0.044 | 0.656 ± 0.045 | 0.558 ± 0.04
